Test results: patent US20070292351A1, “Assay for efficacy of histone deacetylase inhibitors” (Methylgene, Inc., priority 2006, published 2007)
Where two headings read alike, the source gives them in different places.

Assays:
[1] = system: human peripheral white cells; assay: Microarray gene expression analysis, peripheral white cells ex vivo; format: cell-based; conditions: WBC ex vivo
Method: Whole blood from either consenting healthy volunteers or consenting patients was centrifuged at 2500 rpm for 10 minutes at ambient temperature in a Sorvall RT-7 centrifuge (Mandel Scientific Co., Guelph, Ontario). Plasma was removed and buffy coat was collected. Five volumes of Erythrocyte Lysis Buffer (EL) (Qiagen Canada Inc., Mississauga, Ontario) were added into buffy coat. Buffy coat was incubated on ice for 20 minutes before it was centrifuged at 400 g for 10 minutes at 4° C. Supernatant was removed and buffy coat was washed twice with EL buffer and re-centrifuged. Buffy coat was resuspended in RPMI media and cells were counted with trypan blue exclusion. To isolate PBMCs, buffy coat cells were centrifuged over Lymphoprep (Axis-Shield, 1114544), and any remaining erythrocytes in the sample were lysed by treatment with EL lysis buffer (Qiagen, 79217). The cell pellets are washed and then re-suspended in RPMI containing 10% FBS.
Biological analysis was performed using Biointerpreter software.

[2] = system: human colon cancer HCT15 cells; assay: RT-PCR of MT3 transcription in HCT15 cells; format: cell-based
Method: FIG. 1. […] HCT15 cells were treated with HDAC inhibitors or indicated compounds for 16 hours before total RNAs are isolated. RNA levels of MT3 were measured by real-time RT-PCR and are subsequently normalized against β-actin.
Colon cancer HCT15 cells were exposed to 1 μM MGCD0103 for various amounts of time, and MT3 RNA levels were monitored by conventional semi-quantitative RT-PCR. Maximal induction is achieved between 8 h and 24 h of exposure and maintained through 72 h.
(§1) RNA was extracted from 8×10^6 cells using the Qiagen RNeasy Mini kit (cat#74106, Qiagen, Missisauga Ont.) following the manufacturer's instructions. RT reaction was performed using the Expand Reverse Transcriptase kit from Roche (Cat#1 785 834 Roche Applied Biosciences, Laval, Que) with 1 μg total RNA together with 1 μl oligo(dT) primer (cat#y01212, Invitrogen-Canada, Burlington, Ont). cDNA was synthesized using an Eppendorf Mastercycler gradient PCR apparatus (Brinkmann Instruments Canada LTD., Mississauga, Ontario), using a two cycle protocol. For the 1st cycle reaction mixture (0.5 μl H2O, 4 μl of 5× Buffer, 2 μl DTT, 2 ul of 10 mM dNTPs, 0.5 μl RNAsin (cat#N211B, Promega, Fisher Scientific, Whitby, Ont.) and […] of the Expand Reverse Transcriptase (Cat#1785834, Roche, Laval, Quebec)) was incubated at 65° C. for 10 minutes and then set on ice. A second cycle was performed at 42° C. for 1 hour. The resulting cDNA products were kept at 4° C. until used.
(§2) One ul of the resulting cDNA was used for every amplification reaction with 18.9 ul H2O, 1.25 ul of 10 mM dNTPs, 0.5 ul of each primer pair, 2.5 ul of 10× Buffer. The PCR reaction was carried out in an Eppendorf Mastercycler gradient. The sequences of the primers used for the amplification of selected biomarkers, as well as the details of the PCR reaction cycles are featured below. All buffers came from Expand Long Template PCR system (Roche, Laval, Quebec, Cat#11681842001). All primers were synthesized by Invitrogen (Invitrogen-Canada, Burlington, Ont.)
Analysis of transcripts was performed using STORM 860 (Amersham Biosciences, Baie d'Urfe, Qubec). Transcription of genes was normalized to transcription of actin, which was performed in the same RT-PCR reaction. The relative expression level of gense was normalized to baseline signals.
Quantitative PCR with SYBR Green I detection with Mastercycler® ep realplex (Eppendorf) was performed using LightCycler® 480 SYBR Green I Master (Roche Diagnostics). SYBR Green I assays were performed with 600 nM primers. All other reaction conditions were as described by the manufacturer. Amplification conditions were 5 minutes of initial denaturation at 95° C., followed by 40 cycles of each 15 seconds at 95° C., 15 seconds at 63.4° C., 20 seconds at 68° C., a melting curve from 60° C. to 95° C. was recorded. Quantification was performed using Pfaffl method, a relative quantification method in real-time PCR (Nucleic Acids Research 2001 29:2002-2007). Primers were synthesized by Invitrogen (Invitrogen-Canada, Burlington, Ont.).

[3] = system: implanted human NSCLC H460 tumors; assay: Semi-quantitative PCR of p21 and MT3 in H460 tumors in nude mice; format: in vivo, nude mice (Balb/c); conditions: 100 mg/kg oral
Method: FIG. 5 Induction of MT3 and p21 in implanted human NSCLC H460 tumors in vivo in nude mice. Nude mice (Balb/c) bearing human H460 tumors were treated with 100 mg/kg MGCD0103 or 0.5% HEC (Vehicle) by oral administration. After 6 h or 24 h, three mice from each group were sacrificed, their tumors harvested and analyzed. Panel A: p21 and MT3 RNA levels quantified by conventional semi-quantitative PCR, normalized to β-actin. Panel B: H4Ac level detected by immunoblot analysis, normalized to total histones.
as §1
as §2, with “Ont.) […]” for “Ont.)”

bone marrow blast count = assay: Bone marrow blast count in AML patient; format: in vivo, human; conditions: AML Patient A, 2 cycles of treatment (FIG. 10)
Method: FIG. 10. Reduction of bone marrow blast count in Patient A after 2 cycles of MGCD0103 treatment in vivo.
Human patients with either solid tumors or leukemia/MDS diseases were enrolled in phase I studies with consensus forms. MGCD0103 were dosed into patients orally every other day (day 1, day 3, day 5 […]). Blood samples were withdrawled by using the Vacutainer sodium-heparin blood collection tubes (Becton Dickinson Laboratories, Franklin Lakes, N.J.) and shipped to the test site within 24 hours on ice-pack. Baseline samples were drawn immediately prior to the first drug dose, while the 24 hour samples were drawn at 24 hours post the first drug dose. The 48 hours samples were drawn at 48 hours post the first dose. For the 1 week samples, blood was drawn 72 hours after day 5 dose (3 accumulated doses during week 1).

## Nc1ccccc1NC(=O)c1ccc(CNc2nccc(-c3cccnc3)n2)cc1 [MGCD0103]
[1]; probe A_23_P16523, read-out: Fold Induction of GDF15 transcription
  fold induction at 1 µM: 18.8
[1]; probe A_23_P41344, read-out: Fold Induction of EREG transcription
  fold induction at 1 µM: 12.8
[1]; probe A_23_P52336, read-out: Fold Induction of UNC5B transcription
  fold induction at 1 µM: 2.66
[1]; probe A_23_P94754, read-out: Fold Induction of TNFSF15 transcription
  fold induction at 1 µM: 4.43
[1]; probe A_23_P114947, read-out: Fold Induction of RGS2 transcription
  fold induction at 1 µM: 4.43
[1]; probe A_23_P142506, read-out: Fold Induction of GADD45B transcription
  fold induction at 1 µM: 2.9
[1]; probe A_23_P149019, read-out: Fold Induction of BAI2 transcription
  fold induction at 1 µM: 2.69
[1]; probe A_23_P151046, read-out: Fold Induction of KLRC1 transcription
  fold induction at 1 µM: 3.12
[1]; probe A_23_P259071, read-out: Fold Induction of AREG transcription
  fold induction at 1 µM: 32.6
[1]; probe A_23_P315273, read-out: Fold Induction of MT3 transcription
  fold induction at 1 µM: 5.16
[1]; probe A_24_P5856, read-out: Fold Induction of TNFSF9 transcription
  fold induction at 1 µM: 3.32
[1]; probe A_24_P217520, read-out: Fold Induction of EREG transcription
  fold induction at 1 µM: 10.5
[2]; 1 uM (FIG. 3)
  Time-dependent induction of MT3 transcription: Time-dependent induction
  time through which maximal MT3 induction is maintained: ≥ 72 h
[2]; 16 h, semi-quantitative RT-PCR (FIG. 2)
  Dose-dependent induction of MT3 transcription: Dose-dependent induction
[2]; 16 hours, real-time RT-PCR normalized against beta-actin (FIG. 1)
  Induction of transcription of MT3: induced
[3]
  persistence of gene induction (p21, MT3) in tumors: at least 24 h
[3]; 6 h or 24 h (FIG. 5A)
  induction of MT3 RNA in tumors: induction
  induction of p21 RNA in tumors: induction
Bone marrow blast count
  bone marrow blast count: reduction
